Assays:
[1] = system: Pyrenophora teres; assay: Activity against net blotch of barley caused by Pyrenophora teres, 1 day protective application (comparative test); format: in vivo; conditions: potted barley seedlings, sprayed 24 h before inoculation; visual % infection of entire leaf area after 6 days; concentration not given; untreated 90%
Protocol: The active compounds were prepared as a stock solution comprising 25 mg of active compound which was made up to 10 ml using a mixture of acetone and/or DMSO and the emulsifier Uniperol® EL (wetting agent having emulsifying and dispersing action based on ethoxylated alkylphenols) in a volume ratio of solvent/emulsifier of 99/1. The mixture was then made up to 100 ml with water. This stock solution was diluted with the solvent/emulsifier/water mixture described to the concentration of active compound stated below.
Comparative test—Activity against net blotch of barley caused by Pyrenophora teres, 1 day protective application
Leaves of potted barley seedlings were sprayed to runoff point with an aqueous suspension having the concentration of active compound stated below. 24 hours after the spray coating had dried on, the test plants were inoculated with an aqueous spore suspension of Pyrenophora [syn. Drechslera] teres, the net blotch pathogen. The test plants were then placed in a greenhouse at temperatures between 20 and 24° C. and 95 to 100% relative atmospheric humidity. After 6 days, the extent of the development of the disease was determined visually in % infection of the entire leaf area.

SMILES | Infection in % [1] | melting point
CCCCCCc1c(C)nc2cc(C)nn2c1N [compound 30, reference compound] | 90% | 
C=CCCCCc1c(C)nc2cc(C)nn2c1N [I-1] | 40% | 178 to 179 °C

From US20080188493A1 (priority 2005, published 2008)
